Test [1] addresses T1, PTP1B (Homo sapiens, UniProt P18031).
T1 sequence (P18031 1-435): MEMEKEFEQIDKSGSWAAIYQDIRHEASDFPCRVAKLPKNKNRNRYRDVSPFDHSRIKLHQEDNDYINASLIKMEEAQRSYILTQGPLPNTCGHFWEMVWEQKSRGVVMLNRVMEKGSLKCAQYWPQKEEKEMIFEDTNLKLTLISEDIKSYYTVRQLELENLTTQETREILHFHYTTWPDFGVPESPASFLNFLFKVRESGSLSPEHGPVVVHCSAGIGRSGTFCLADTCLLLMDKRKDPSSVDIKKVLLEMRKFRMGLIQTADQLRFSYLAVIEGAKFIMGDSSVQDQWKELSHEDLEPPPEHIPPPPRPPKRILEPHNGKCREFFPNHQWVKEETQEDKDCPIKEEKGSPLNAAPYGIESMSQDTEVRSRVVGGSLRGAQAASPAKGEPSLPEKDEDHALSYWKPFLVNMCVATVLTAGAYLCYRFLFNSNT
Put plainly: PTP1B inhibitory assay (p-NPP substrate). The class given is biochemical. To be noted: absorbance at 405 nm, mean ± SD, three independent experiments, read-out: IC50 against PTP1B. The method, then: The p-nitrophenyl phosphate (p-NPP) was used as a substrate to evaluate enzyme inhibition assays, following a previously established protocol. The final assay volume was 100 μL. The 75 μL reaction buffer containing 50 mM HEPES, 100 mM NaCl, 1 mM EDTA, and 1 mM dithiothreitol, 10 μL protein, and 5 μL sample were added to a 96-well plate and incubated at room temperature for 15 min. Subsequently, 10 μL of reaction buffer containing p-NPP was added to the reaction system. Sodium orthovanadate (Na₃VO₄) and dimethyl sulfoxide (DMSO) were used as the positive and negative controls, respectively. Enzymatic activity was determined by measuring absorbance at 405 nm. The half-maximal inhibitory concentration (IC₅₀) values were obtained from three independent experiments. The percentage of inhibition was calculated using the following equation: ODcontrol-ODblank-ODcompound-ODblank/ODcontrol-ODblank×100%

In test [2] the target is T1, PTP1B. Put plainly: Inhibition kinetic analysis (Lineweaver–Burk). Type of test: biochemical. To be noted: for Type of inhibition of PTP1B: Lineweaver–Burk double-reciprocal plot; for Vmax in presence of compound: p-NPP substrate, increasing inhibitor concentration. The method, then: The experimental procedure followed that described in the enzyme inhibition assay. The data were represented using Lineweaver–Burk double-reciprocal plots. The inhibition constants (Ki and Kis) were determined from the secondary plots of the slopes and intercepts derived from the Lineweaver–Burk plots.

The structures appear in SMILES notation. “And” between values parts separate entries of the source, which are not always exact repeats. Equal values may be shown once.

Regarding `CC1OC(=O)c2c(O)c(Cl)c3c(c2C1O)CC12OC4(O)CCC1(C)C(O)(CCC2(C)O3)C4(C)C` (stereo not drawn) [Compound 7, talarine Q], the IC50 in test [1] amounted to 15.6 ± 1.6 µM.

For the compound `CC1Cc2c3c(cc(O)c2C(=O)O1)OC1(C)CCC(O)C2(C)CCC(=O)OC12C3` (stereo not drawn) [Compound 1, talarine K], in test [1], the IC50 was found to be 16.5 ± 0.6 µM.

For the compound `CC1Cc2c3c(cc(O)c2C(=O)O1)OC1(C)CCC(=O)C2(C)CC=C(C(C)(C)O)OC12C3` (stereo not drawn) [Compound 2, talarine L], the IC50 in test [1] came out at 1.74 ± 3.81 µM. For the same compound, in test [2], the “Type of inhibition of PTP1B” value is on record as “competitive inhibitors” and the “Vmax in presence of compound” value is recorded as “unchanged”.

With `COC1(C(C)C)CCC2(C)C(=O)CCC3(C)Oc4cc(O)c5c(c4CC32O1)C(OC(C)=O)C(C)OC5=O` (stereo not drawn) [Compound 4, talarine N], in test [1], the IC50 amounted to 8.54 ± 1.52 µM.

Regarding `CC1Cc2c3c(c(Cl)c(O)c2C(=O)O1)OC1(C)CCC2(O)OC4(C(C)(C)O)CCC2(C)C1(C3)O4` (stereo not drawn) [Compound 6, talarine P], in test [1], the IC50 was 14.3 ± 0.86 µM.

As for `CC(=O)OC1c2c3c(c(Cl)c(O)c2C(=O)OC1C)OC1(C)CCC2(O)OC4(C(C)(C)O)CCC2(C)C1(C3)O4` (stereo not drawn) [Compound 5, talarine O], in test [1], the IC50 is 6.57 ± 1.47 µM.

For `CC(=O)O[C@@H]1c2c3c(cc(O)c2C(=O)O[C@@H]1C)O[C@]1(C)CCC(=O)[C@]2(C)CC=C(C(C)C)O[C@]12C3` [Compound 12, talaromyolide J], in test [1], the IC50 came to 3.03 ± 2.25 µM. In test [2], the “Type of inhibition of PTP1B” value is recorded as “competitive inhibitors” and the “Vmax in presence of compound” value is on record as “unchanged”.

For the compound `COC1(C(C)C)CCC2(C)C(=O)CCC3(C)Oc4c(Cl)c(O)c5c(c4CC32O1)CC(C)OC5=O` (stereo not drawn) [Compound 3, talarine M], in test [1], the IC50 was 8.54 µM and 17.6 µM.

As a reminder, the IC50 is the concentration that gives 50% inhibition.

Values taken from paper PMC12274187, “Novel polycyclic meroterpenoids with protein tyrosine phosphatase 1B inhibitory activity isolated from desert-derived fungi Talaromyces sp. HMT-8” (Natural Products and Bioprospecting, 2025).
